One assay relates to HTB-68 (NRAS mutation). Briefly: MTT cell viability assay, HTB-68 melanoma. Format: cell-based, human. The note with it: Homo sapiens, 24 h. The procedure, abridged: (§1)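 Cells (2×10^3 to 1×10^4/well) seeded overnight, then exposed to compounds for 24 h to 72 h. Growth read by MTT colorimetry at OD570. Viability expressed as % of vehicle (0.5% DMSO) control.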
Assay [1] relates to MDA-MB-231 (ER−, PR−, Her2−) human breast cancer cells. Briefly: MTT cell viability assay, MDA-MB-231 cells. The assay is classed as cell-based. The note with it: Homo sapiens, MDA-MB-231, 24 h, read-out: IC50 on cell viability, MDA-MB-231 (ER−, PR−, Her2−). The procedure, abridged: (§2)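 Cells were seeded at 2×10^3 to 1×10^4 per well overnight, then exposed to compounds for 24 h to 72 h. Viability was read by MTT at OD570 as a percentage of the 0.5% DMSO vehicle control.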
On the technique in general: Tetrazolium assays rely on reduction of a dye to a coloured formazan, in cell work by metabolically active cells.

The subject of the next assay is B16-F10 (NRAS mutation). Briefly: MTT cell viability assay, B16-F10 melanoma. Particulars: Mus musculus, B16-F10, 24 h, 24 h, read-out: IC50 on cell viability, B16-F10 (NRAS mutation). Format: cell-based. The procedure, abridged:
as §1

In assay [2] the test system is Melanocyte (Normal cells). The experiment in a line: MTT cell viability assay, normal melanocytes. Format: cell-based, human. Particulars: Homo sapiens, Melanocyte, 24 h. The procedure, abridged: as §1
Assay [3] deals with MeWo (No NRAS or BRAF mutation). Briefly: MTT cell viability assay, MeWo melanoma. Particulars: Homo sapiens, MeWo, 24 h. The assay is classed as cell-based, human. The procedure, abridged:
as §1

Assay [4] concerns MCF-7 (ER+, Her2−) human breast cancer cells. The experiment in a line: MTT cell viability assay, MCF-7 cells. Format: cell-based. Particulars: MCF7, 24 h, read-out: IC50 on cell viability, MCF-7 (ER+, Her2−). The procedure, abridged:
as §2

In assay [5] the test system is LPS-induced nitric oxide (NO) production in RAW 264.7 cells. The experiment in a line: Nitric oxide production in LPS-stimulated macrophages (Griess). The assay is classed as cell-based, mouse. The note with it: Mus musculus; LPS-stimulated RAW264.7, nitrite 24 h after LPS. Summed up: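 RAW 264.7 macrophages (2×10^5 cells/well) were pretreated with compound for 1 h and then stimulated with 100 ng/μL LPS for 24 h. NO was measured as nitrite in the medium by the Griess reaction. Viability was checked in parallel by MTT.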
(Griess reagent forms a coloured azo dye with nitrite.)

Assay [6] deals with M10 normal mammary epithelial cells. The experiment in a line: MTT cell viability assay, M10 normal cells. Format: cell-based, human. Particulars: Homo sapiens, Epithelial cell, 24 h. Summed up:
as §2

In a further assay the test system is A2058 (BRAF mutation). Briefly: MTT cell viability assay, A2058 melanoma. Format: cell-based, human. Particulars: Homo sapiens, A2058, 24 h. Summed up:
as §1

In assay [7] the test system is melanoma cell lines B16-F10, MeWo, A375, A2058, HTB-68. The experiment in a line: MTT cell viability assay, all melanoma cell lines. Format: cell-based. Particulars: 24 h, read-out: IC50 values over all types of melanoma cell lines. The procedure:
Normal or cancer cells (2×10^3 to 1×10^4 cells/well) were seeded in 96-well plate for overnight and treated with different compounds for 24 h to 72 h. Cells growth were determined by MTT-based colorimetric assays according to. Viability of the test cells treated with vehicle (0.5% DMSO) only was defined as 100% viable. Survival of cells after treatment with DETDs was calculated using the following formula: viable cell number (%)=OD570 (treated cell culture)/OD570 (vehicle control)×100.
Several genes are involved in melanoma development and pathology; specifically, mutation in V-raf murine sarcoma viral oncogene homolog B1 (B-RAF) occurs approximately 50-60% and in neuroblastoma RAS viral oncogene homolog (N-RAS) occurs about 30% of malignant melanomas. A spectrum of wild-type or mutated melanoma cell lines including B16-F10, MeWo, A375, A2058, HTB-68, and melanocyte were used to study anti-melanoma cell proliferation activity of parental phytocompound DET and newly synthesized DETDs.

The test system of assay [8] is TS/A (ER+, Her2−) murine mammary cancer cells. Briefly: MTT cell viability assay, TS/A cells. Format: cell-based. Particulars: Mus musculus, 24 h, read-out: IC50 on cell viability, TS/A (ER+, Her2−). The procedure, abridged:
as §2

The test system of assay [9] is RAW264.7 (normal macrophage). The experiment in a line: MTT cell viability assay, RAW264.7 macrophages. The note with it: Mus musculus, RAW264.7, 24 h. Format: cell-based, mouse. Summed up:
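RAW264.7 macrophages (2×10^5 cells/well) pretreated with compounds 1 h, then incubated 24 h with or without 100 ng/μL LPS. Viability by MTT colorimetric assay run in parallel with Griess nitrite measurement.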

The next assay relates to A375 (BRAF mutation). Briefly: MTT cell viability assay, A375 melanoma. The assay is classed as cell-based, human. The note with it: Homo sapiens, A-375, 24 h, 24 h, MTT; read-out: IC50 on cell viability, A375 (BRAF mutation). The procedure, abridged: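 A375 cells were seeded at 2×10^3 to 1×10^4 per well overnight and then exposed to compounds for 24 h to 72 h. Viability was measured by MTT absorbance at OD570 relative to 0.5% DMSO vehicle (100%), and IC50 was derived from it. Combination with PLX4032 was scored by combination index.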

SMILES strings stand for the structures. Bounds are passed on as bounds.

Turning to `C=C1C(=O)OC2CC3=C[C@@H](C/C(C)=C/C(OC(=O)Cc4cccc5cc(OC)ccc45)[C@H]12)OC3=O` (some centres unmarked) [DETD-45], the IC50 was 3.5 µM with HTB-68 (NRAS mutation); 3.1 µM in assay [1]; 4.5 µM in the assay with B16-F10 (NRAS mutation); > 10 µM in assay [2]; 4.5 µM in assay [3]; 3.1 µM in [4]. Moreover, the IC50 is 2.8 µM in [5]; 4.7 µM in assay [6]; 3.6 µM in the assay on A2058 (BRAF mutation); 1.6 to 9.9 µM in [7]; 2 µM in [8]; > 10 µM in assay [9]. Also, in the assay on A375 (BRAF mutation), the IC50 came out at 1.7 µM.

`C=C1C(=O)OC2CC3=C[C@@H](C/C(C)=C/C(OC(=O)[C@@H](C)c4ccc5cc(OC)ccc5c4)[C@H]12)OC3=O` (some centres unmarked) [DETD-53]: the IC50 is 5 µM with HTB-68 (NRAS mutation); 3.8 µM in assay [1]; 5.2 µM in the assay with B16-F10 (NRAS mutation); > 10 µM in assay [2]; 6 µM in assay [3]; 4.1 µM in [4]. In addition, the IC50 in assay [5] is 3.5 µM; in assay [6], 4.8 µM; in the assay on A2058 (BRAF mutation), 5.5 µM; in assay [7], 1.6 to 9.9 µM; in [8] it was 4.1 µM; in [9], > 10 µM. In the assay on A375 (BRAF mutation), the IC50 amounted to 2.8 µM.

For the compound `C=C1C(=O)OC2CC3=C[C@@H](C/C(C)=C/C(OC(=O)[C@H](C)c4ccc5cc(OC)ccc5c4)[C@H]12)OC3=O` (some centres unmarked) [DETD-54], the IC50 with HTB-68 (NRAS mutation) was 7 µM; in assay [1] it was 4.9 µM; with B16-F10 (NRAS mutation) it was 6.6 µM; in [2], > 10 µM; in assay [3], 7.9 µM; in assay [4] it was > 7.5 µM. The IC50 was > 10 µM in assay [5]; > 7.5 µM in assay [6]; 6.6 µM in the assay on A2058 (BRAF mutation); 1.6 to 9.9 µM in assay [7]; 3.1 µM in assay [8]; > 10 µM in [9]. In addition, in the assay on A375 (BRAF mutation), the IC50 amounted to 3.4 µM.

Take `C=C1C(=O)OC2CC3=C[C@@H](C/C(C)=C/[C@@H](OC(=O)C(C)(OC)c4ccc5ccccc5c4)[C@H]12)OC3=O` (some centres unmarked) [DETD-55]: the IC50 was 5.3 µM in the assay with HTB-68 (NRAS mutation); 4.1 µM in assay [1]; 4.8 µM in the assay on B16-F10 (NRAS mutation); > 10 µM in assay [2]; 9 µM in assay [3]; > 7.5 µM in [4]. The IC50 in assay [5] was 2.9 µM; in [6], > 7.5 µM; in the assay on A2058 (BRAF mutation) it was 6.1 µM; in assay [7], 1.6 to 9.9 µM; in [8], 2.8 µM; in [9], > 10 µM. In addition, in the assay with A375 (BRAF mutation), the IC50 was 2.6 µM.

As for `C=C1C(=O)OC2CC3=C[C@@H](C/C(C)=C/[C@@H](OC(=O)[C@@H](OC)c4ccc5ccccc5c4)[C@H]12)OC3=O` (some centres unmarked) [DETD-56], the IC50 is 4.5 µM with HTB-68 (NRAS mutation); 4.2 µM in assay [1]; 5.3 µM in the assay with B16-F10 (NRAS mutation); > 10 µM in assay [2]; 7.6 µM in [3]; 4.5 µM in [4]. In addition, the IC50 was 3 µM in assay [5]; > 7.5 µM in assay [6]; 5.2 µM with A2058 (BRAF mutation); 1.6 to 9.9 µM in [7]; 1.9 µM in [8]; > 10 µM in assay [9]. Besides, the IC50 with A375 (BRAF mutation) worked out at 2.5 µM.

Take `C=C1C(=O)OC2CC3=C[C@@H](C/C(C)=C/[C@@H](OC(=O)Cc4csc5ccccc45)[C@H]12)OC3=O` (some centres unmarked) [DETD-58]: the IC50 was 3.8 µM in the assay with HTB-68 (NRAS mutation); 3.8 µM in [1]; 5.6 µM in the assay with B16-F10 (NRAS mutation); > 10 µM in assay [2]; 8.3 µM in assay [3]; 3.8 µM in assay [4]. Further, the IC50 is 3.6 µM in assay [5]; 5.8 µM in [6]; 5 µM in the assay on A2058 (BRAF mutation); 1.6 to 9.9 µM in assay [7]; 2.1 µM in assay [8]; > 10 µM in assay [9]. For the same compound, the IC50 in the assay with A375 (BRAF mutation) came to 2.1 µM.

Regarding `C=C1C(=O)OC2CC3=C[C@@H](C/C(C)=C/[C@@H](OC(=O)/C=C/c4ccc(OCC)cc4)[C@H]12)OC3=O` (some centres unmarked) [DETD-60], the IC50 in the assay with HTB-68 (NRAS mutation) is 4.9 µM; in assay [1], 2.7 µM; in the assay on B16-F10 (NRAS mutation) it was 4.9 µM; in [2] it was > 10 µM; in assay [3], 4.8 µM; in [4] it was 3.3 µM. For the same compound, the IC50 in [5] was 3 µM; in assay [6], 4 µM; in the assay with A2058 (BRAF mutation), 4.1 µM; in assay [7], 1.6 to 9.9 µM; in assay [8], 2.1 µM; in assay [9], > 10 µM. In addition, the IC50 in the assay on A375 (BRAF mutation) worked out at 2 µM.

Take `C=C1C(=O)OC2CC3=C[C@@H](C/C(C)=C/[C@@H](OC(=O)/C=C/c4ccc5c(c4)OCO5)[C@H]12)OC3=O` (some centres unmarked) [DETD-61]: the IC50 in the assay with HTB-68 (NRAS mutation) was 5.5 µM; in assay [1], 3.4 µM; in the assay with B16-F10 (NRAS mutation) it was 6 µM; in assay [2] it was > 10 µM; in [3], 6.6 µM; in [4] it was 3.6 µM. The IC50 was 3.1 µM in assay [5]; 4.7 µM in assay [6]; 5.2 µM with A2058 (BRAF mutation); 1.6 to 9.9 µM in assay [7]; 2.5 µM in [8]; > 10 µM in assay [9]. The IC50 in the assay with A375 (BRAF mutation) was 2.6 µM.

The values are drawn from US10238631B2, “Sesquiterpene derivatives and their use in inflammation or cancer treatment” (Academia Sinica, priority 2014, dated 2019).
